Reference: ChEMBL document CHEMBL3217727, “Berberine azoles as antimicrobial agents: synthesis, biological evaluation and their interactions with human serum albumin” (Medchemcomm, 2013)
In brackets after ≈: the same amount, converted by molar mass.

Legend:
[1] = test system: Cyberlindnera jadinii; test: Antimicrobial activity against Candida utilis ATCC 9950 after 24 hrs by microbroth dilution method; assay type: functional; settings: Williopsis jadinii, ATCC 9950, 24 h
[2] = test system: Micrococcus luteus; test: Antimicrobial activity against Micrococcus luteus ATCC 4698 after 24 hrs by microbroth dilution method; assay type: functional; settings: NCTC 2665, 24 h
[3] = test system: Saccharomyces cerevisiae; test: Antimicrobial activity against Saccharomyces cerevisiae ATCC 9763 after 24 hrs by microbroth dilution method; assay type: functional; settings: ATCC 9763, 24 h
[4] = test system: Candida; test: Antimicrobial activity against Candida mycoderma after 24 hrs by microbroth dilution method; assay type: functional
[5] = test system: Candida albicans; test: Antimicrobial activity against Candida albicans ATCC 90029 after 24 hrs by microbroth dilution method; assay type: functional; settings: ATCC 90029, 24 h
[6] = test system: Bacillus spizizenii; test: Antimicrobial activity against Bacillus subtilis ATCC 6633 after 24 hrs by microbroth dilution method; assay type: functional; settings: ATCC 6633, 24 h
[7] = test system: Proteus vulgaris; test: Ratio of berberine MIC to compound MIC for Proteus vulgaris ATCC 8427; assay type: functional
[8] = test system: Proteus vulgaris; test: Ratio of norfloxacin MIC to compound MIC for Proteus vulgaris ATCC 8427; assay type: functional
[9] = test system: Proteus vulgaris; test: Ratio of chloromycin MIC to compound MIC for Proteus vulgaris ATCC 8427; assay type: functional
[10] = target: Albumin (Homo sapiens, UniProt P02768); test: Binding affinity to human serum albumin at 0.2 to 1.8 10^-5 mol/L at pH 7.4 at 294 K by UV-vis spectroscopic analysis; assay type: ADME; settings: isolated protein
[11] = test system: Escherichia coli; test: Antimicrobial activity against Escherichia coli […] after 24 hrs by microbroth dilution method; assay type: functional
[12] = test system: Pseudomonas aeruginosa; test: Antimicrobial activity against Pseudomonas aeruginosa ATCC 27853 after 24 hrs by microbroth dilution method; assay type: functional; settings: ATCC 27853, 24 h
[13] = test system: Staphylococcus aureus; test: Antimicrobial activity against methicillin-resistant Staphylococcus aureus N315 after 24 hrs by microbroth dilution method; assay type: functional; settings: N315, 24 h
[14] = test system: Shigella dysenteriae; test: Antimicrobial activity against Shigella dysenteriae ATCC 51252 after 24 hrs by microbroth dilution method; assay type: functional; settings: ATCC 51252, 24 h
[15] = test system: Proteus vulgaris; test: Antimicrobial activity against Proteus vulgaris ATCC 8427 after 24 hrs by microbroth dilution method; assay type: functional; settings: ATCC 8427, 24 h
[16] = test system: Staphylococcus aureus; test: Antimicrobial activity against Staphylococcus aureus ATCC 25923 after 24 hrs by microbroth dilution method; assay type: functional; settings: ATCC 25923, 24 h
[17] = test system: Shigella dysenteriae; test: Ratio of berberine MIC to compound MIC for Shigella dysenteriae ATCC 51252; assay type: functional
[18] = test system: Shigella dysenteriae; test: Ratio of chloromycin MIC to compound MIC for Shigella dysenteriae ATCC 51252; assay type: functional

Sequence of Albumin (P02768 whole entry): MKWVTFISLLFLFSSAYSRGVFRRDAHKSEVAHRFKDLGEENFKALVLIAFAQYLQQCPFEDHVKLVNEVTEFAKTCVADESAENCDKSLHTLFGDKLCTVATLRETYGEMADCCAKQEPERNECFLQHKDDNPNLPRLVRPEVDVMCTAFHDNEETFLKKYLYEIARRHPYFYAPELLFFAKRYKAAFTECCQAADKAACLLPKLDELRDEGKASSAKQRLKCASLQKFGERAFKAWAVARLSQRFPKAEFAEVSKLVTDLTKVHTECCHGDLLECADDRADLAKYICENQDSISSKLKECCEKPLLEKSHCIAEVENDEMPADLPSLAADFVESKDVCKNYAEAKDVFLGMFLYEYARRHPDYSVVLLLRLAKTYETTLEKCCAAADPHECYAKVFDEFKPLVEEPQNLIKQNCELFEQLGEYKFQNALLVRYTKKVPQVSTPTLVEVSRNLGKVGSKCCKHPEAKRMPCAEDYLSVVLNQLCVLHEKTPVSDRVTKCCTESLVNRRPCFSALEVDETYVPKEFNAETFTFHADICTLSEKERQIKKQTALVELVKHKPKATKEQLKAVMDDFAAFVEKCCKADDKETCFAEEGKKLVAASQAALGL

SMILES	MIC80 [1]	MIC [2]	MIC80 [3]	MIC80 [4]	MIC80 [5]	MIC [6]	Ratio [7]	Ratio [8]	Ratio [9]	Activity [10]	MIC [11]	MIC [12]	MIC [13]	MIC [14]	MIC [15]	MIC [16]	Ratio [17]	Ratio [18]
COc1ccc2cc3[n+](cc2c1OCCN(CCn1cncn1)Cc1ccc(Cl)cc1)CCc1cc2c(cc1-3)OCO2.[Cl-]	16 µg/mL	16 µg/mL	32 µg/mL	32 µg/mL	32 µg/mL	8 µg/mL												
COc1ccc2cc3[n+](cc2c1OCCN(CCn1cncn1)Cc1cccc(Cl)c1)CCc1cc2c(cc1-3)OCO2.[Cl-]	8 µg/mL	32 µg/mL	32 µg/mL	4 µg/mL	16 µg/mL	16 µg/mL												
COc1ccc2cc3[n+](cc2c1OCCN(CCn1cncn1)Cc1ccccc1Cl)CCc1cc2c(cc1-3)OCO2.[Cl-]	32 µg/mL	32 µg/mL	16 µg/mL	8 µg/mL	16 µg/mL	8 µg/mL												
COc1ccc2cc3[n+](cc2c1OCCN(CCn1cncn1)Cc1ccc(Cl)c(Cl)c1)CCc1cc2c(cc1-3)OCO2.[Cl-]	32 µg/mL	16 µg/mL	32 µg/mL	4 µg/mL	8 µg/mL	8 µg/mL												
COc1ccc2cc3[n+](cc2c1OCCN(CCn1cncn1)Cc1ccc(Cl)cc1Cl)CCc1cc2c(cc1-3)OCO2.[Cl-]	16 µg/mL	16 µg/mL	16 µg/mL	4 µg/mL	4 µg/mL	8 µg/mL												
COc1ccc2cc3[n+](cc2c1OCCN(CCn1cncn1)Cc1cccc(F)c1)CCc1cc2c(cc1-3)OCO2.[Cl-]	8 µg/mL	16 µg/mL	16 µg/mL	4 µg/mL	4 µg/mL	8 µg/mL												
COc1ccc2cc3[n+](cc2c1OCCN(CCn1cncn1)Cc1ccccc1F)CCc1cc2c(cc1-3)OCO2.[Cl-]	16 µg/mL	8 µg/mL	16 µg/mL	2 µg/mL	4 µg/mL	8 µg/mL												
Clc1ccc(CN(CCBr)CCn2cncn2)cc1	128 µg/mL (≈ 372 µM)	512 µg/mL (≈ 1490 µM)	64 µg/mL (≈ 186 µM)	256 µg/mL (≈ 745 µM)	128 µg/mL (≈ 372 µM)	256 µg/mL (≈ 745 µM)												
COc1ccc2cc3[n+](cc2c1OCCN(CCn1cncn1)Cc1ccc(F)cc1F)CCc1cc2c(cc1-3)OCO2.[Cl-]	8 µg/mL	8 µg/mL	32 µg/mL	2 µg/mL	4 µg/mL	8 µg/mL	64	4	16	Active								
Clc1cccc(CN(CCBr)CCn2cncn2)c1	256 µg/mL (≈ 745 µM)	64 µg/mL (≈ 186 µM)	128 µg/mL (≈ 372 µM)	256 µg/mL (≈ 745 µM)	64 µg/mL (≈ 186 µM)	256 µg/mL (≈ 745 µM)												
Clc1ccc(CN(CCBr)CCn2cncn2)c(Cl)c1	256 µg/mL (≈ 677 µM)	32 µg/mL (≈ 84.6 µM)	256 µg/mL (≈ 677 µM)	256 µg/mL (≈ 677 µM)	32 µg/mL (≈ 84.6 µM)	256 µg/mL (≈ 677 µM)												
Clc1ccc(CN(CCBr)CCn2cncn2)cc1Cl	64 µg/mL (≈ 169 µM)	32 µg/mL (≈ 84.6 µM)	128 µg/mL (≈ 339 µM)	256 µg/mL (≈ 677 µM)	32 µg/mL (≈ 84.6 µM)	256 µg/mL (≈ 677 µM)												
Clc1ccccc1CN(CCBr)CCn1cncn1	128 µg/mL (≈ 372 µM)	64 µg/mL (≈ 186 µM)	256 µg/mL (≈ 745 µM)	256 µg/mL (≈ 745 µM)	64 µg/mL (≈ 186 µM)	256 µg/mL (≈ 745 µM)												
Fc1cccc(CN(CCBr)CCn2cncn2)c1	256 µg/mL (≈ 782 µM)	64 µg/mL (≈ 196 µM)	128 µg/mL (≈ 391 µM)	256 µg/mL (≈ 782 µM)	32 µg/mL (≈ 97.8 µM)	256 µg/mL (≈ 782 µM)												
Fc1ccc(CN(CCBr)CCn2cncn2)c(F)c1	256 µg/mL (≈ 742 µM)	32 µg/mL (≈ 92.7 µM)	128 µg/mL (≈ 371 µM)	256 µg/mL (≈ 742 µM)	32 µg/mL (≈ 92.7 µM)	256 µg/mL (≈ 742 µM)												
Fc1ccccc1CN(CCBr)CCn1cncn1	128 µg/mL (≈ 391 µM)	64 µg/mL (≈ 196 µM)	64 µg/mL (≈ 196 µM)	256 µg/mL (≈ 782 µM)	32 µg/mL (≈ 97.8 µM)	256 µg/mL (≈ 782 µM)												
Fc1ccc(CN(CCBr)CCn2ccnc2)c(F)c1	64 µg/mL (≈ 186 µM)	64 µg/mL (≈ 186 µM)	128 µg/mL (≈ 372 µM)	32 µg/mL (≈ 93 µM)	64 µg/mL (≈ 186 µM)	128 µg/mL (≈ 372 µM)					128 µg/mL (≈ 372 µM)	32 µg/mL (≈ 93 µM)	64 µg/mL (≈ 186 µM)	128 µg/mL (≈ 372 µM)	256 µg/mL (≈ 744 µM)	64 µg/mL (≈ 186 µM)		
COc1ccc2cc3[n+](cc2c1OCCN(CCn1ccnc1)Cc1ccc(F)cc1F)CCc1cc2c(cc1-3)OCO2.[Cl-]	32 µg/mL	32 µg/mL	32 µg/mL	32 µg/mL	32 µg/mL	16 µg/mL					32 µg/mL	16 µg/mL	16 µg/mL	16 µg/mL	32 µg/mL	8 µg/mL		
Fc1ccc(CN(CCBr)CCn2cnc3ccccc32)c(F)c1	128 µg/mL (≈ 325 µM)	256 µg/mL (≈ 649 µM)	128 µg/mL (≈ 325 µM)	64 µg/mL (≈ 162 µM)	128 µg/mL (≈ 325 µM)	256 µg/mL (≈ 649 µM)					512 µg/mL (≈ 1300 µM)	128 µg/mL (≈ 325 µM)	256 µg/mL (≈ 649 µM)	64 µg/mL (≈ 162 µM)	512 µg/mL (≈ 1300 µM)	128 µg/mL (≈ 325 µM)		
Cc1cc2ncn(CCN(CCBr)Cc3ccc(F)cc3F)c2cc1C	128 µg/mL (≈ 303 µM)	64 µg/mL (≈ 152 µM)	256 µg/mL (≈ 606 µM)	64 µg/mL (≈ 152 µM)	128 µg/mL (≈ 303 µM)	32 µg/mL (≈ 75.8 µM)					128 µg/mL (≈ 303 µM)	64 µg/mL (≈ 152 µM)	128 µg/mL (≈ 303 µM)	16 µg/mL (≈ 37.9 µM)	128 µg/mL (≈ 303 µM)	64 µg/mL (≈ 152 µM)		
Fc1ccc(CN(CCBr)CCn2nnc3ccccc32)c(F)c1	256 µg/mL (≈ 648 µM)	256 µg/mL (≈ 648 µM)	256 µg/mL (≈ 648 µM)	> 512 µg/mL	> 512 µg/mL	256 µg/mL (≈ 648 µM)					128 µg/mL (≈ 324 µM)	128 µg/mL (≈ 324 µM)	128 µg/mL (≈ 324 µM)	64 µg/mL (≈ 162 µM)	256 µg/mL (≈ 648 µM)	256 µg/mL (≈ 648 µM)		
COc1ccc2cc3[n+](cc2c1OCCN(CCn1cnc2ccccc21)Cc1ccc(F)cc1F)CCc1cc2c(cc1-3)OCO2.[Cl-]	16 µg/mL	16 µg/mL	32 µg/mL	32 µg/mL	32 µg/mL	32 µg/mL					32 µg/mL	16 µg/mL	32 µg/mL	8 µg/mL	32 µg/mL	16 µg/mL		
COc1ccc2cc3[n+](cc2c1OCCN(CCn1cnc2cc(C)c(C)cc21)Cc1ccc(F)cc1F)CCc1cc2c(cc1-3)OCO2.[Cl-]	16 µg/mL	16 µg/mL	16 µg/mL	16 µg/mL	32 µg/mL	16 µg/mL					32 µg/mL	8 µg/mL	32 µg/mL	4 µg/mL	8 µg/mL	32 µg/mL	64	8
COc1ccc2cc3[n+](cc2c1OCCN(CCn1nnc2ccccc21)Cc1ccc(F)cc1F)CCc1cc2c(cc1-3)OCO2.[Cl-]	32 µg/mL	128 µg/mL	16 µg/mL	> 512 µg/mL	> 512 µg/mL	128 µg/mL					128 µg/mL	64 µg/mL	64 µg/mL	32 µg/mL	128 µg/mL	64 µg/mL		
Fc1ccc(CN(CCBr)CCSc2nc3ccccc3[nH]2)c(F)c1	512 µg/mL (≈ 1200 µM)	> 512 µg/mL	512 µg/mL (≈ 1200 µM)	> 512 µg/mL	> 512 µg/mL	> 512 µg/mL					> 512 µg/mL	> 512 µg/mL	> 512 µg/mL	> 512 µg/mL	> 512 µg/mL	> 512 µg/mL		
COc1ccc2cc3[n+](cc2c1OCCN(CCSc1nc2ccccc2[nH]1)Cc1ccc(F)cc1F)CCc1cc2c(cc1-3)OCO2.[Cl-]	64 µg/mL	128 µg/mL	64 µg/mL	128 µg/mL	64 µg/mL	64 µg/mL					32 µg/mL	64 µg/mL	64 µg/mL	128 µg/mL	64 µg/mL	32 µg/mL		
COc1ccc2cc3[n+](cc2c1OC)CCc1cc2c(cc1-3)OCO2 [BERBERINE]	256 µg/mL	> 512 µg/mL	128 µg/mL	128 µg/mL	> 512 µg/mL	> 512 µg/mL												
O=C(N[C@H](CO)[C@H](O)c1ccc([N+](=O)[O-])cc1)C(Cl)Cl [CHLORAMPHENICOL]		8 µg/mL (≈ 24.8 µM)				32 µg/mL (≈ 99 µM)												
OC(Cn1cncn1)(Cn1cncn1)c1ccc(F)cc1F [FLUCONAZOLE]	8 µg/mL (≈ 26.1 µM)		16 µg/mL (≈ 52.2 µM)	4 µg/mL (≈ 13.1 µM)	1 µg/mL (≈ 3.27 µM)													
CCn1cc(C(=O)O)c(=O)c2cc(F)c(N3CCNCC3)cc21 [NORFLOXACIN]		2 µg/mL (≈ 6.26 µM)				1 µg/mL (≈ 3.13 µM)												
